According to patent publication US20250328351A1, “CARBONIC ANHYDRASE INHIBITORS AND ANTIBIOTICS AGAINST MULTIDRUG RESISTANT BACTERIA” (Purdue Research Foundation, priority 2018, published 2025):
Converted amounts (≈) assume the structure as drawn. Where two headings read alike, the source gives them in different places.

How the values were obtained:
[1] = test system: Enterococcus faecalis S613 HM-334; experiment: MIC, broth microdilution (CLSI); format: cell-based; conditions: Enterococcus faecalis, read-out: MIC
Experimental: (§1) The minimum inhibitory concentrations (MICs) of the compounds and control drugs were determined using the broth microdilution method, according to guidelines outlined by the Clinical and Laboratory Standards Institute (CLSI). Enterococci strains were grown aerobically overnight on tryptone soya agar plates at 37° C., afterwards a bacterial solution equivalent to 0.5 McFarland standard was prepared and diluted in tryptone soy broth (TSB) to achieve a bacterial concentration of about 5×10^5 CFU/mL and seeded in 96-well well plates. Compounds and control drugs were added in the first row of the 96-well plates and serially diluted along the plates. Plates were then incubated aerobically at 37° C. for 18-20 hours. MICs reported in Table 1 are the minimum concentration of the compounds/control drugs that could inhibit completely the visual growth of the bacteria.
(§2) The minimum inhibitory concentrations (MICs) of CAIs were tested against clinical isolates of vancomycin sensitive and vancomycin resistant Enterococci strains as per the guidelines provided by the Clinical and Laboratory Standards Institute (CLSI). The selected strains of Enterococci were streaked on Tryptic Soy Agar (TSA) plates and let grow for 24 hours at 37° C. Afterwards, a bacterial solution equivalent to 0.5 McFarland standard was prepared and diluted in tryptone soy broth (TSB) or brain heart infusion broth (BHIB) to achieve a bacterial concentration of about 5×10^5 CFU/mL and seeded in 96-well well plates. Compounds and control drugs were added in the first row of the 96-well plates and serially diluted along the plates. Plates were then incubated aerobically at 37° C. for 18-20 hours. MICs reported in Table 5 are the minimum concentration of the compounds/control drugs that could inhibit completely the visual growth of the bacteria.
The minimum inhibitory concentrations (MICs) of CAIs were tested against vancomycin resistant Enterococcus faecalis—S613 HM 334 strain as per the guidelines provided by the Clinical and Laboratory Standards Institute (CLSI). The selected strain was streaked on Tryptic Soy Agar (TSA) plate and let grow for 24 hours at 37° C. […] Compounds and control drugs were added in the first row of the 96-well plates and serially diluted along the plates. Plates were then incubated aerobically at 37° C. for 18-20 hours. MICs reported in table (6) are the minimum concentration of the compounds/control drugs that could inhibit completely the visual growth of the bacteria.

[2] = test system: Bacteroides fragilis CL07T00C01 HM-709; experiment: MIC against human normal gut microbiota; format: cell-based; conditions: Table 3, BHIS broth, anaerobic, 48 hours, read-out: MIC
Experimental: (§3) Three different bacterial strains were used in this experiment; Bifidobacterium (anaerobic Gram positive bacteria), Bacteroides (anaerobic Gram negative bacteria) and Lactobacillus (microaerophilic Gram positive bacteria). Bifidobacterium and Bacteroides were first grown for 48 hours at 37° C., anaerobically using brain heart infusion supplemented (BHIS) agar (Brain heart infusion agar supplemented with hemin, vitamin K and L-cysteine). Lactobacillus was cultivated on MRS agar and incubated in presence of 5% CO2 for 48 hours at 37° C. Each bacterium was suspended in phosphate buffered saline (PBS) to produce a suspension with optical density that matches 0.5 McFarland standard and diluted in brain heart infusion supplemented broth (for Bifidobacterium and Bacteroides) or in MRS broth (for Lactobacillus) to achieve bacterial concentration of approximately 5×10^5 CFU/ml. Bacteria were then seeded in 96-well plates containing serial dilutions of the compounds and incubated as mentioned previously for 48 hours.

[3] = test system: Bacteroides dorei CL02T12C06 HM-719; experiment: MIC against human normal gut microbiota; format: cell-based; conditions: Phocaeicola dorei; Table 3; BHIS broth, anaerobic, 48 hours; read-out: MIC
Experimental: as §3

[4] = test system: Bifidobacterium breve JCP7499 HM 1120; experiment: MIC against human normal gut microbiota; format: cell-based; conditions: JCP7499HM1120, Table 3, BHIS broth, anaerobic, 48 hours, read-out: MIC
Experimental: as §3

Caco-2 cells = experiment: In vitro cytotoxicity, MTS assay; conditions: concentration up to 128 μg/mL; two hours incubation
Experimental: Method: Compounds AS005H, AS005J, AS004B, AS005K, AS005A and 005D were assayed (at concentrations of 64 and 128 μg/mL) against a human colorectal adenocarcinoma (Caco-2) cell to determine the potential toxic effect to mammalian cells in vitro. Briefly, cells were cultured in Dulbecco's Modified Eagle Medium (DMEM) supplemented with 20% fetal bovine serum (FBS), non-essential amino acids (1×), penicillin-streptomycin at 37° C. with CO2 (5%). Control cells received DMSO alone at a concentration equal to that in drug-treated cell samples. The cells were incubated with the compounds (in triplicate) in a 96-well plate at 37° C. with CO2 (5%) for two hours. The assay reagent MTS 3-(4,5-dimethylthiazol-2-yl)-5-(3-carboxymethoxyphenyl)-2-(4-sulfophenyl)-2H-tetrazolium) (Promega, Madison, WI, USA) was subsequently added and the plate was incubated for four hours. Absorbance readings (at OD490) were taken using a kinetic microplate reader (Molecular Devices, Sunnyvale, CA, USA). The quantity of viable cells after treatment with each compound was expressed as a percentage of the viability of DMSO-treated control cells (average of triplicate wells±standard deviation). The toxicity data was analyzed via a two-way ANOVA, with post hoc Dunnet's multiple comparisons test (P<0.05), utilizing GraphPad Prism 6.0 (GraphPad Software, La Jolla, CA).
Percent viable mammalian cells (measured as average absorbance ratio (test agent relative to DMSO) for cytotoxicity analysis of AS005H, AS005J, AS004B, AS005K, AS005A and 005D compounds (tested in triplicate) at 64 and 128 μg/mL against Caco-2 cells using the MTS 3-(4,5-dimethylthiazol-2-yl)-5-(3-carboxymethoxyphenyl)-2-(4-sulfophenyl)-2H-tetrazolium) assay. Dimethyl sulfoxide (DMSO) was used as a negative control to determine a baseline measurement for the cytotoxic impact of each compound. The absorbance values represent an average of a minimum of three samples analyzed for each compound. Error bars represent standard deviation values for the absorbance values. A two-way ANOVA, with post hoc Dunnet's multiple comparisons test, determined statistical difference (denoted by the asterisk) (P<0.05) between the values obtained for each compound and DMSO (negative control, used as solvent for the compounds).

VERO cells = experiment: In vitro cytotoxicity, MTS assay; format: cell-based, monkey; conditions: concentration up to 128 μg/mL; two hours incubation
Experimental: Toxicity assessment: Compounds AS005H, AS005J, AS004B, AS005K, AS005A and 005D were assayed (at concentrations of 64 and 128 μg/mL) against a fibroblast-like monkey kidney cell line (VERO cell) to determine the potential toxic effect in vitro. Briefly, cells were cultured in Minimum Essential Medium (MEM) supplemented with 10% fetal bovine serum (FBS), 1 mM sodium pyruvate, and penicillin-streptomycin at 37° C. with CO2 (5%). Control cells received DMSO alone at a concentration equal to that in drug-treated cell samples. The cells were incubated with the compounds (in triplicate) in a 96-well plate at 37° C. with CO2 (5%) for two hours. The assay reagent MTS 3-(4,5-dimethylthiazol-2-yl)-5-(3-carboxymethoxyphenyl)-2-(4-sulfophenyl)-2H-tetrazolium) (Promega, Madison, WI, USA) was subsequently added and the plate was incubated for four hours. Absorbance readings (at OD490) were taken using a kinetic microplate reader (Molecular Devices, Sunnyvale, CA, USA). The quantity of viable cells after treatment with each compound was expressed as a percentage of the viability of DMSO-treated control cells (average of triplicate wells±standard deviation). The toxicity data was analyzed via a two-way ANOVA, with post hoc Dunnet's multiple comparisons test (P<0.05), utilizing GraphPad Prism 6.0 (GraphPad Software, La Jolla, CA).
Percent viable mammalian cells (measured as average absorbance ratio (test agent relative to DMSO) for cytotoxicity analysis of compounds AS005H, AS005J, AS004B, AS005K, AS005A and 005D (tested in triplicates) at 64 and 128 μg/mL against VERO cells using the MTS 3-(4,5-dimethylthiazol-2-yl)-5-(3-carboxymethoxyphenyl)-2-(4-sulfophenyl)-2H-tetrazolium) assay. Dimethyl sulfoxide (DMSO) was used as a negative control to determine a baseline measurement for the cytotoxic impact of each compound. The absorbance values represent an average of a minimum of three samples analyzed for each compound. Error bars represent standard deviation values for the absorbance values.

E. faecium NR 31909 = conditions: oral 20 mg/kg daily for 4 days
Description: Saline was used as a negative control. Mice were euthanized on day 5 and organs (liver, spleen and kidneys) were aseptically removed and homogenized, and viable VRE were enumerated by serial dilution and plating.

[5] = test system: vancomycin-resistant E. faecium; experiment: Mouse model of GI colonization by VRE; format: in vivo, C57BL/6 mice
Description: Feasibility in vivo study: AZM reduces VRE load in the intestines and faeces. The promising feature, and the specific and potent antimicrobial activity of CAIs, prompted us to evaluate the in vivo efficacy of AZM in our established mouse model of GI colonization by enterococci with features that mimic the antibiotic-induced enterococcal expansion observed in humans (Mohammad, H. et al., Int J Antimicrob Agents 2018, 51, 897-904; Abdelkhalek, A, et al., PLoS One 2018, 13, e0199710). We tested AZM (two clinical doses 10 and 20 mg/kg) in female 12-week-old C57BL/6 mice (n=5 mice per group) that were sensitized with ampicillin ([…] in drinking water) for 7 days to reduce the microbiota present in the gastrointestinal tract and colonized with 10^8 CFU/mL of vancomycin-resistant E. faecium.
We thought that the rapid absorption of AZM from the gastrointestinal tract would limit their exposure time to VRE present in the gastrointestinal tract.
Mice were treated for 8 days with 10 mg/kg of drugs by oral gavage.

[6] = test system: Enterococcus fecalis Strain SF 28073 - NR31972; experiment: MIC, broth microdilution (CLSI); format: cell-based; conditions: Enterococcus, Table 7; TSB; read-out: MIC
Experimental: as §1

[7] = test system: Enterococcus faecium Patient #3-1 NR-31912; experiment: MIC, broth microdilution (CLSI); format: cell-based; conditions: Enterococcus faecium, Table 7; TSB; read-out: MIC
Experimental: as §1

[8] = test system: Enterococcus fecalis Strain SF24413 NR31971; experiment: MIC, broth microdilution (CLSI); format: cell-based; conditions: Enterococcus, Table 7; TSB; read-out: MIC
Experimental: as §1

[9] = test system: Enterococcus fecalis Strain SF 24397 NR31970; experiment: MIC, broth microdilution (CLSI); format: cell-based; conditions: Enterococcus, Table 7; TSB; read-out: MIC
Experimental: as §1, §2

[10] = test system: Enterococcus faecium Patient #2-1 - NR-31909; experiment: MIC, broth microdilution (CLSI); format: cell-based; conditions: Enterococcus faecium, Table 7; TSB; read-out: MIC
Experimental: as §1, §2

[11] = test system: Enterococcus faecium E417 - HM-965; experiment: MIC, broth microdilution (CLSI); format: cell-based; conditions: Enterococcus faecium, E417HM965, Table 7; TSB; read-out: MIC
Experimental: as §1, §2

[12] = S613HM334, Table 6, TSB in presence of 4% human serum albumin

| Compound | MIC ([1]; S613HM334, Table 1, TSB) [µg/mL] | MIC ([1]; S613HM334, Table 7, TSB) [µg/mL] | MIC [2] [µg/mL] | MIC [3] [µg/mL] | MIC [4] [µg/mL] | toxicity to Caco-2 cells (percent viable cells, MTS) (Caco-2 cells) | toxicity to VERO cells (percent viable cells, MTS) (VERO cells) | MIC ([1]; S613HM334, Table 5, BHIB) [µg/mL] | MIC ([1]; S613HM334, Table 5, TSB) [µg/mL] | MIC [1, 12] [µg/mL] | mice protected against a lethal dose (survival) (E. faecium NR 31909) [%] | reduction of bacterial load in internal organs compared with linezolid (E. faecium NR 31909; liver, spleen, kidneys on day 5) | VRE in feces, cecal content and ileal content compared to control mice ([5]; 10 mg/kg or 20 mg/kg once a day, feces as early as 3rd day) | VRE reduction compared with linezolid ([5]; AZM 10 and 20 mg/kg, linezolid 10 mg/kg once daily for 8 days) | MIC [6] [µg/mL] | MIC [7] [µg/mL] | MIC [8] [µg/mL] | MIC [9] [µg/mL] | MIC [10] [µg/mL] | MIC [11] [µg/mL] |
| --- | --- | --- | --- | --- | --- | --- | --- | --- | --- | --- | --- | --- | --- | --- | --- | --- | --- | --- | --- | --- |
| CC(C)C(=O)Nc1nnc(S(N)(=O)=O)s1 [CAI0011, N-(5-Sulfamoyl-1,3,4-thiadiazol-2-yl)isobutyramide] | 2 (≈ 7.99 µM) | 2 (≈ 7.99 µM) | > 64 | > 64 | > 64 | non-toxic | non-toxic | – | – | – | – | – | – | – | – | – | – | – | – | – |
| CCc1ccc(C(=O)Nc2nnc(S(N)(=O)=O)s2)cc1 [CAI0017, 4-Ethyl-N-(5-sulfamoyl-1,3,4-thiadiazol-2-yl)benzamide] | 1 (≈ 3.2 µM) | 1 (≈ 3.2 µM) | > 64 | > 64 | > 64 | non-toxic | non-toxic | – | – | – | – | – | – | – | – | – | – | – | – | – |
| CC(=O)Nc1nnc(S(N)(=O)=O)s1 [Acetazolamide] | 2 (≈ 9 µM) | 2 (≈ 9 µM) | > 64 | > 64 | > 64 | – | – | > 128 | 2 (≈ 9 µM) | > 256 | 100 | superior to linezolid | significant reduction | outperformed linezolid | – | – | – | – | – | – |
| CC(C)(C)C(=O)Nc1nnc(S(N)(=O)=O)s1 [CAI0010, N-(5-Sulfamoyl-1,3,4-thiadiazol-2-yl)pivalamide] | 0.5 (≈ 1.89 µM) | 0.125 (≈ 0.473 µM) | > 64 | > 64 | > 64 | non-toxic | non-toxic | – | – | > 256 | – | – | – | – | – | – | – | – | – | – |
| NS(=O)(=O)c1nnc(NC(=O)C=CC2CCCCC2)s1 [CAI0019, 3-cyclohexyl-N-(5-sulfamoyl-1,3,4-thiadiazol-2-yl)propenamide] | – | 0.007 (≈ 0.0221 µM) | – | – | – | – | – | – | – | – | – | – | – | – | 0.015 (≈ 0.0474 µM) | 0.007 (≈ 0.0221 µM) | 0.015 (≈ 0.0474 µM) | 0.015 (≈ 0.0474 µM) | 0.003 (≈ 0.00948 µM) | 0.007 (≈ 0.0221 µM) |
